In this experiment the test system is CYH2-PTC-FF reporter. The experiment in a line: dual luciferase (Firefly/Renilla) CYH2-PTC reporter assay. The experiment is classed as cell-based, yeast. The text has this:
FIG. 1: Schematic representation of comparative dual luciferase PTC assay as employed here. Firefly (FF) and Renilla (R) in wild type (WT) yeast cells are compared with luminescence counts of a PTC-FF reporter (e.g. the CYH2-PTC-FF reporter) in wild type yeast cells, wherein a PTC reduces the FF protein and thus luminescence.
FIG. 3: Gene dosage of ribosomal proteins modulates level of protein expression from PTC mRNAs. […] In FIG. 3B, a modulation of the expression of the FF/FF(PTC) reporter in selected ribosomal protein deletion strains is shown. In FIG. 3C, a modulation of expression of the LAMB3-FF/LAMB3(PTC)-FF reporter in selected ribosomal protein deletion strains is shown.
The yeast CYH2 was amplified from the genomic yeast DNA with the primers LG 751 and LG 752. The ATG of the CYH2 was left out to be in frame with the promoter and the firefly luciferase reporter. The 1.0 kb PCR product and pLBK 162 were digested with KpnI and SacI. The CYH2-PTC reporter was ligated in pLBK 162, thus generating pLBK 165 (FIG. 5f). […]
The reporter plasmids are to be transformed in the WT and ribosomal protein deletion strains. […] For testing the different levels of read-through a PTC containing reporter plasmid (e.g. pLBK 165) and for internal standard pLBK 164 are used. […]

Entries after “also recorded” stand apart in the source; their conditions may differ.

As for gentamycin, where the note is “RPL10/ΔRPL10 gene dosage reduced yeast strain, gentamycin added”, the “expression level of the CYH2-PTC-FF reporter” value is “not strong or not present at all; also recorded: does not contribute to alteration”. For the same substance, the “CYH2-PTC-FF level (Firefly signal)” value (WT yeast strain (BY4743), gentamycin added as control) is listed as “the signal increases; also recorded: induce an increase”.

(Values after patent publication US11959145B2, “Method for identifying interventions that control the translational activity of ribosomal proteins in differential mRNA expression” (priority 2009, dated 2024).)
